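All cell lines were grown in 96-well plates and treated with compound for 48 hours. GI50 marks 50% less growth.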 The source made the active and inactive calls. Rule as the data show it: active = GI50 up to about 1.1 µM and inactive = higher.
Key:
Experiment in all cases: DTP human tumour cell line panel, 48 h
EKVX = tested on: EKVX
786-0 = tested on: 786-0
MOLT-4 = tested on: MOLT-4
SK-MEL-5 = tested on: SK-MEL-5
CAKI-1 = tested on: CAKI-1
A549 = tested on: A549
ACHN = tested on: ACHN
HCT-116 = tested on: HCT-116
M19-MEL = tested on: M19-MEL
KM12 = tested on: KM12
UACC-257 = tested on: UACC-257
SW-620 = tested on: SW-620
NCI-H23 = tested on: NCI-H23
K562 = tested on: K562
SF-539 = tested on: SF-539
HCT-15 = tested on: HCT-15
DLD-1 = tested on: DLD-1
OVCAR-4 = tested on: OVCAR-4
RPMI-8226 = tested on: RPMI-8226
HOP-18 = tested on: HOP-18
DMS-273 = tested on: DMS-273
SF-268 = tested on: SF-268
SF-295 = tested on: SF-295
HOP-62 = tested on: HOP-62
RXF 393 = tested on: RXF 393
CCRF-CEM = tested on: CCRF-CEM
HT-29 = tested on: HT-29
Malme-3M = tested on: Malme-3M
TK-10 = tested on: TK-10
HCC 2998 = tested on: HCC 2998
NCI-H460 = tested on: NCI-H460
KM-20L2 = tested on: KM-20L2
M14 = tested on: M14
SN12C = tested on: SN12C
IGROV-1 = tested on: IGROV-1
SNB-19 = tested on: SNB-19
XF498 = tested on: XF498
UO-31 = tested on: UO-31
SNB-75 = tested on: SNB-75
LOX IMVI = tested on: LOX IMVI
SR = tested on: SR
A498 = tested on: A498
UACC-62 = tested on: UACC-62
SK-MEL-28 = tested on: SK-MEL-28
SK-OV-3 = tested on: SK-OV-3
LXFL 529 = tested on: LXFL 529
HL-60 = tested on: HL-60
SNB-78 = tested on: SNB-78
OVCAR-5 = tested on: OVCAR-5
SK-MEL-2 = tested on: SK-MEL-2
U-251 = tested on: U-251
OVCAR-8 = tested on: OVCAR-8
OVCAR-3 = tested on: OVCAR-3
DU-145 = tested on: DU-145
NCI-H226 = tested on: NCI-H226
BT-549 = tested on: BT-549
PC-3 = tested on: PC-3
Hs-578T = tested on: Hs-578T
DMS-114 = tested on: DMS-114
MCF7 = tested on: MCF7
T47D = tested on: T47D
MDA-N = tested on: MDA-N
COLO 205 = tested on: COLO 205
MDA-MB-231 = tested on: MDA-MB-231
NCI/ADR-RES = tested on: NCI/ADR-RES
MDA-MB-435 = tested on: MDA-MB-435
NCI-H522 = tested on: NCI-H522
HOP-92 = tested on: HOP-92

Structure (SMILES): CNC(=S)OCCC(C)CCCC(C)C (stereo not given)
- GI50 (EKVX): 17.1 µM (inactive)
- GI50 (786-0): 17.2 µM (inactive)
- GI50 (MOLT-4): 11.2 µM (inactive)
- GI50 (SK-MEL-5): 17.5 µM (inactive)
- GI50 (CAKI-1): 17.1 µM (inactive)
- GI50 (A549): 16.3 µM (inactive)
- GI50 (ACHN): 18.8 µM (inactive)
- GI50 (HCT-116): 16.7 µM (inactive)
- GI50 (M19-MEL): 19.3 µM (inactive)
- GI50 (KM12): 14.4 µM (inactive)
- GI50 (UACC-257): 16.4 µM (inactive)
- GI50 (SW-620): 16.6 µM (inactive)
- GI50 (NCI-H23): 18.8 µM (inactive)
- GI50 (K562): 13.7 µM (inactive)
- GI50 (SF-539): 16.8 µM (inactive)
- GI50 (HCT-15): 14.7 µM
- GI50 (DLD-1): 15.5 µM (inactive)
- GI50 (OVCAR-4): 16.7 µM (inactive)
- GI50 (RPMI-8226): 10.8 µM (inactive)
- GI50 (HOP-18): 15.3 µM (inactive)
- GI50 (DMS-273): 16.8 µM (inactive)
- GI50 (SF-268): 17 µM (inactive)
- GI50 (SF-295): 21.5 µM (inactive)
- GI50 (HOP-62): 19.6 µM (inactive)
- GI50 (RXF 393): 16.2 µM (inactive)
- GI50 (CCRF-CEM): 19.4 µM (inactive)
- GI50 (HT-29): 17.3 µM (inactive)
- GI50 (Malme-3M): 21.5 µM (inactive)
- GI50 (TK-10): 12.8 µM (inactive)
- GI50 (HCC 2998): 18 µM (inactive)
- GI50 (NCI-H460): 18.7 µM (inactive)
- GI50 (KM-20L2): 16.3 µM (inactive)
- GI50 (M14): 18.6 µM (inactive)
- GI50 (SN12C): 16.3 µM (inactive)
- GI50 (IGROV-1): 17.3 µM (inactive)
- GI50 (SNB-19): 16.9 µM (inactive)
- GI50 (XF498): 17 µM (inactive)
- GI50 (UO-31): 7.16 µM (inactive)
- GI50 (SNB-75): 20.8 µM (inactive)
- GI50 (LOX IMVI): 13.2 µM (inactive)
- GI50 (SR): 14 µM (inactive)
- GI50 (A498): 16.3 µM (inactive)
- GI50 (UACC-62): 15.5 µM (inactive)
- GI50 (SK-MEL-28): 24.7 µM (inactive)
- GI50 (SK-OV-3): 20.9 µM (inactive)
- GI50 (LXFL 529): 15.8 µM (inactive)
- GI50 (HL-60): 6.84 µM (inactive)
- GI50 (SNB-78): 18.8 µM (inactive)
- GI50 (OVCAR-5): 11.3 µM (inactive)
- GI50 (SK-MEL-2): 13.7 µM (inactive)
- GI50 (U-251): 15.5 µM (inactive)
- GI50 (OVCAR-8): 17.3 µM (inactive)

Structure (SMILES): NCCCNc1ccc2c3c(nn2CCNCCO)-c2c(O)ccc(O)c2C(=O)c13
- GI50 (OVCAR-3): 5.13 µM (inactive)
- GI50 (786-0): 2.38 µM (inactive)
- GI50 (MOLT-4): 0.21 µM (active)
- GI50 (SK-MEL-5): 0.925 µM (active)
- GI50 (DU-145): 1.29 µM (inactive)
- GI50 (ACHN): 0.989 µM (active)
- GI50 (NCI-H226): 0.406 µM (active)
- GI50 (M19-MEL): 1.5 µM (inactive)
- GI50 (KM12): 3.78 µM (inactive)
- GI50 (UACC-257): 5.81 µM (inactive)
- GI50 (SW-620): 1.15 µM (inactive)
- GI50 (NCI-H23): 1.25 µM (inactive)
- GI50 (HCT-15): 5.01 µM
- GI50 (DLD-1): 4.08 µM (inactive)
- GI50 (BT-549): 0.695 µM (active)
- GI50 (OVCAR-4): 3.93 µM (inactive)
- GI50 (RPMI-8226): 1.2 µM (inactive)
- GI50 (HOP-18): 2.32 µM (inactive)
- GI50 (PC-3): 2.84 µM (inactive)
- GI50 (DMS-273): 0.366 µM (active)
- GI50 (Hs-578T): 0.787 µM (active)
- GI50 (SF-268): 1.35 µM (inactive)
- GI50 (SF-295): 0.889 µM (active)
- GI50 (HOP-62): 0.362 µM (active)
- GI50 (HT-29): 3.68 µM (inactive)
- GI50 (Malme-3M): 1.51 µM (inactive)
- GI50 (DMS-114): 0.561 µM (active)
- GI50 (TK-10): 4.2 µM (inactive)
- GI50 (MCF7): 0.418 µM (active)
- GI50 (T47D): 2.18 µM (inactive)
- GI50 (MDA-N): 2.75 µM (inactive)
- GI50 (COLO 205): 1.44 µM (inactive)
- GI50 (KM-20L2): 2.89 µM (inactive)
- GI50 (M14): 3.2 µM (inactive)
- GI50 (IGROV-1): 2.46 µM (inactive)
- GI50 (SNB-19): 0.354 µM (active)
- GI50 (XF498): 0.125 µM (active)
- GI50 (SNB-75): 0.889 µM (active)
- GI50 (LOX IMVI): 0.927 µM (active)
- GI50 (MDA-MB-231): 3.84 µM (inactive)
- GI50 (NCI/ADR-RES): 29.7 µM (inactive)
- GI50 (SR): 0.253 µM (active)
- GI50 (A498): 1.82 µM (inactive)
- GI50 (UACC-62): 0.883 µM (active)
- GI50 (SK-OV-3): 1.28 µM (inactive)
- GI50 (SNB-78): 1.42 µM (inactive)
- GI50 (MDA-MB-435): 9.71 µM (inactive)
- GI50 (OVCAR-5): 4.28 µM (inactive)
- GI50 (NCI-H522): 1.18 µM (inactive)

Structure (SMILES): COC1=CC(=O)C=C(OC)C1=O [2,6-DIMETHOXYQUINONE]
- GI50 (OVCAR-3): 4.78 µM (inactive)
- GI50 (EKVX): 5.69 µM (inactive)
- GI50 (MOLT-4): 1.49 µM (inactive)
- GI50 (SK-MEL-5): 20.9 µM (inactive)
- GI50 (CAKI-1): 50.4 µM (inactive)
- GI50 (A549): 57.1 µM (inactive)
- GI50 (HCT-116): 6.49 µM (inactive)
- GI50 (NCI-H226): 1.55 µM (inactive)
- GI50 (M19-MEL): 4.22 µM (inactive)
- GI50 (KM12): 16.4 µM (inactive)
- GI50 (UACC-257): 10.2 µM (inactive)
- GI50 (SW-620): 6.37 µM (inactive)
- GI50 (NCI-H23): 7.66 µM (inactive)
- GI50 (K562): 7.1 µM (inactive)
- GI50 (SF-539): 16.8 µM (inactive)
- GI50 (HCT-15): 31.6 µM
- GI50 (DLD-1): 8.87 µM (inactive)
- GI50 (OVCAR-4): 7.43 µM (inactive)
- GI50 (RPMI-8226): 6 µM (inactive)
- GI50 (HOP-18): 45.8 µM (inactive)
- GI50 (DMS-273): 36.1 µM (inactive)
- GI50 (SF-268): 6.46 µM (inactive)
- GI50 (SF-295): 13.3 µM (inactive)
- GI50 (HOP-62): 25.3 µM (inactive)
- GI50 (RXF 393): 7.96 µM (inactive)
- GI50 (HOP-92): 4.16 µM (inactive)
- GI50 (CCRF-CEM): 1.38 µM (inactive)
- GI50 (HT-29): 27.4 µM (inactive)
- GI50 (Malme-3M): 20.2 µM (inactive)
- GI50 (DMS-114): 5.81 µM (inactive)
- GI50 (MCF7): 17.7 µM (inactive)
- GI50 (HCC 2998): 27.9 µM (inactive)
- GI50 (COLO 205): 12.6 µM (inactive)
- GI50 (NCI-H460): 23.7 µM (inactive)
- GI50 (KM-20L2): 30 µM (inactive)
- GI50 (SN12C): 15.6 µM (inactive)
- GI50 (IGROV-1): 11.3 µM (inactive)
- GI50 (SNB-19): 13.6 µM (inactive)
- GI50 (XF498): 2.99 µM (inactive)
- GI50 (UO-31): 23.6 µM (inactive)
- GI50 (SNB-75): 27.9 µM (inactive)
- GI50 (LOX IMVI): 5.14 µM (inactive)
- GI50 (NCI/ADR-RES): 5.01 µM (inactive)
- GI50 (A498): 2.49 µM (inactive)
- GI50 (UACC-62): 5.33 µM (inactive)
- GI50 (SK-MEL-28): 21.8 µM (inactive)
- GI50 (SK-OV-3): 17.9 µM (inactive)
- GI50 (HL-60): 3.94 µM (inactive)
- GI50 (SNB-78): 16.8 µM (inactive)
- GI50 (OVCAR-5): 28.1 µM (inactive)
- GI50 (NCI-H522): 7.05 µM (inactive)
- GI50 (SK-MEL-2): 6.55 µM (inactive)
- GI50 (U-251): 31.6 µM (inactive)
- GI50 (OVCAR-8): 8.93 µM (inactive)

— ChEMBL document CHEMBL1201862, “PubChem BioAssay data set” (2004)
